{
  "source": "patent US10576145B2",
  "about": "“CD200 inhibitors and methods of use thereof” (REGENTS OF THE UNIVERSITY OF MINNESOTA, priority 2014, dated 2020)",
  "key": {"[1]": {"tested_on": "naïve splenocytes exposed to GL261 cells", "experiment": "GL261 cells incubated with naive splenocytes in trans-well plate +/- CD200R antagonist: MDSC expansion and IFN-γ", "format": "cell-based, mouse", "experimental": "(§1) FIGS. 17A-17B. CD200R antagonist blocks MDSC expansion and tumor suppressive effects. (FIG. 17A) Murine glioma GL261 was incubated with naïve splenocytes in a trans-well plate+/−CD200R antagonist and analyzed for MDSC expansion and cytokine production. (FIG. 17B) Naïve splenocytes were pulsed with purified CD200+/−CD200R antagonist and analyzed for MDSC expansion and arginase-I production. Error bars are ±SEM, statistical significance was determined by one-way ANOVA, post hoc analysis by Dunn's multiple comparison test, *p<0.05, ** p<0.001.\nTo determine the level of MDSC expansion when splenocytes were exposed to tumor cells, splenocytes were also harvested and purified as described above; 300,000 splenocytes were plated in the bottom of 24 well transwell plates containing a 0.4-micron filter. Following 24 hr incubation, 30,000 GL261 cells were plated on the transwell insert with and without the CD200R antagonist 6059. Total volume was 700 μl/well so that the insert was submerged in the media within the wells. Cells were incubated for 5 days, harvested, and stained with CD11b and GR-1 to determine MDSC levels. In another set of wells, OVA was added to the wells 24 hours after the splenocytes were plated. Following another 72 hr incubation, 3×10^5 purified CD8 T-cells isolated from an OT-I mouse and were added to the wells and incubated for an additional 72 hrs. […]"}, "CD200R": {"biological_target": "T1, CD200R (Mus musculus, UniProt Q9ES57)", "T1 sequence (Q9ES57 26-326)": "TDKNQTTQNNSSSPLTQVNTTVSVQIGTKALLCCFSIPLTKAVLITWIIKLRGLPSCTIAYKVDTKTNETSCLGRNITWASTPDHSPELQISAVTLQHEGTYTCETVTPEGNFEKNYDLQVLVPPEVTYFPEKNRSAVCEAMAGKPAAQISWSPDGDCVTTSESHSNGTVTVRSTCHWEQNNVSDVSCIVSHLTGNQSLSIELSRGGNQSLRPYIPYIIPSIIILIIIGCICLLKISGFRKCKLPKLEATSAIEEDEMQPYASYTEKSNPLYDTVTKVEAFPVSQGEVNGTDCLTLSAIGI", "conditions": "reportedly; cited from earlier work"}, "[2]": {"tested_on": "naïve splenocytes pulsed with purified CD200 protein", "experiment": "Naive splenocytes pulsed with purified CD200 +/- CD200R antagonist: MDSC expansion and arginase-I", "format": "cell-based", "experimental": "as §1\nSpleens were harvested homogenized in RPMI media containing 10% FBS, penicillin/streptomycin (100 U/ml), and 0.1 mg/ml Normocin (Invivogen). Cells were then filtered using a 70-micron filter, centrifuged, and resuspended in 5 ml of Ammonium-Chloride-Potassium buffer and incubated for 5 minutes at room temperature to lyse RBCs. […] Following 24 h incubation, CD200R antagonist peptide 6059 was added to the appropriate wells, incubated for 20 min prior to adding 5 μg of purified CD200 protein (Sino Biological) and incubated for a further 72 hrs, harvested and analyzed for anti-CD11b and […] population using an LSR II flow cytometer. […] Following incubation, 50 μl culture supernatant was analyzed for IFN-γ using a flow cytometric bead array according to the manufacturer's protocol (BD Biosciences). […]"}, "EMT6 tumor bearing mice": {"tested_on": "EMT6 tumor bearing mice", "experiment": "EMT6 breast carcinoma model: tumor lysate + CpG +/- competitive inhibitor, survival", "format": "in vivo, BALB/c mice", "experimental": "FIG. 6. Percent survival of mice inoculated with 1×10^6 EMT6 cells. To determine if our competitive inhibitors worked in other tumor models, mice were inoculated in the fat pad with 1×10^6 EMT6 cells. Specifically, mice were vaccinated with 65 μg of EMT6 tumor lysates+50 μg of adjuvant CpG and 50 μg of different completive inhibitors (6059, 4004, 4013 and 6061) and monitored for survival. Saline and tumor lysate+adjuvant CpG were used as controls.\nFIGS. 19A-19B. Select CD200 antagonists enhance survival. (FIG. 19A) EMT6 tumor bearing mice were vaccinated with tumor lysate, CpG+/−CD200 antagonist 4004, 4013 or 6059. […] Log-rank analysis was used for survival.\nTumors were implanted into female C57BL/6 mice (6-8 wk old) (Jackson Laboratory) and maintained in a pathogen-free facility according to the guidelines of the University of Minnesota Animal Care and Use Committee. The GL261 orthotopic transplant model was established in C57BL/6 (B6) mice by inoculation with 15,000 GL261-Luc^+ cells in 1 μl of saline. Tumors were implanted stereotactically into the right striatum; coordinates were 2.5 mm lateral, 0.5 mm anterior of bregma, and 3 mm deep from the cortical surface of the brain^19. Tumor burden was determined by bioluminescent imaging. Light emitted from the tumors was quantified using Living Image software (Xenogen) and expressed as photons per second per centimeter squared per steradian (p/s/cm^2/sr). GL261 cells for tumor lysate vaccines were cultured in neural stem cell media consisting of DMEM/F12 (1:1) with L-glutamine, sodium bicarbonate, penicillin/streptomycin (100 U/ml), B27 and N2 supplements (Life Technologies), and 0.1 mg/ml Normocin (Invivogen). Cultures were maintained at 5% 02 and supplemented with 20 ng/ml EGF and FGF semiweekly (R&D Systems, Minneapolis, Minn.). […] Mice were euthanized when tumors reached 1000 mm^3. […] Tumor cells used to establish both models were cultured in DMEM containing 10% FBS, penicillin/streptomycin (100 U/ml), and 0.1 mg/ml Normocin (Invivogen) in atmospheric oxygen."}},
  "note": "“Also recorded” adds a separate entry of the source.",
  "data": [
    {"sequence": "NTIGDGGCY [Antagonist 6059]", "values": [
      {"measurement": "IFN-γ production of OT-I CD8 T-cells in response to OVA", "setting": "[1]; trans-well with GL261 cells", "result": "blocked both the expansion of MDSCs as well as the production of IFN-γ"},
      {"measurement": "Expansion of CD11b+Gr1+ MDSC induced by GL261 cells", "setting": "[1]; trans-well, 5 days", "result": "blocked both the expansion of MDSCs"},
      {"measurement": "Competition with CD200 for binding to CD200R", "setting": "CD200R", "result": "outcompetes the intact CD200 protein for binding to the CD200R"},
      {"measurement": "CD200 induced arginase-I secretion", "setting": "[2]", "result": "blocked CD200 induced arginase-I secretion"},
      {"measurement": "CD200 induced MDSC expansion", "setting": "[2]; pre-incubation with antagonist", "result": "significantly blocked CD200 induced MDSC expansion"},
      {"measurement": "Survival", "setting": "EMT6 tumor bearing mice", "result": "results translated to a breast carcinoma (EMT6) model; also recorded: significantly extended survival benefit"}
    ]}
  ]
}
